Measured values published in patent publication US20240261323A1, “PLURI-IONIC COMPLEX FOR THE PREVENTION OR TREATMENT OF NEUROGENIC INFLAMMATION” (OLYS PHARMA SRL, priority 2021, published 2024).

Experiments:
[1] = tested on: sensory neurons myelinated by Schwann cells; experiment: Neuroprotection on myelinated sensory neuron/Schwann cell coculture, cisplatin poisoning, curative protocol (co-incubation 24 h); type: cell-based, rat
Excerpt: The in vitro model used is a culture of sensory neurons myelinated by Schwann cells (Callizot et al., 2011, Exp Cell Res 317:2374-2383). This model, miniaturized in 96 wells, makes it possible to analyze the effects of molecules on the development of sensory neurons and on the myelination of axons by Schwann cells.
(§1) Protocol of the coculture of sensory neurons and Schwann cells: Female rats with 15 days gestation were killed by cervical dislocation (Wistar rats; January Lab) and the fetuses were removed from the uterus. Embryonic DRGs were collected and placed in an icy medium of Leibovitz 15 (L15; PanBiotech, Ref P04-27055, batch: 4590720) containing 2% Penicillin-Streptomycin (PS; PanBiotech, ref: P06-07100, batch: 7390220) and 1% bovine serum albumin (BSA; PanBiotech, Ref: P06-1391100, batch: H200403). DRGs were dissociated by trypsinization for 20 minutes (min) at 37° C. (Trypsin EDTA 1×; PanBiotech, Ref: P10-023100, batch: 3590720). The reaction was stopped by the addition of Dulbecco's modified Eagle medium (DMEM; PanBiotech, Ref: P04-03600, batch: 4080720) containing DNase I grade II (0.1 mg/ml; PanBiotech, Ref: P60-37780100, batch: H181015) and 10% fetal calf serum (FCS; Invitrogen, Ref: 10270106, batch: 2232584). The cells were then mechanically dissociated by 3 passes through a 10 ml pipette. The cells were then centrifuged at 180×g for 10 min at +4° C. on a layer of BSA (3.5%) in medium L15. The supernatant was discarded and the cell pellets were resuspended in a defined culture medium consisting of Neurobasal (Invitrogen, Ref: 21103049, batch: 2176355) supplemented with 2% B27; (Invitrogen, ref: 17504-044, batch: 2193553), L-glutamine (2 mM; PanBiotech, Ref: P04-80100, batch: 3301019), 2% PS and 50 ng/mL NGF (Sigma, Ref: N1408, L batch batch: SLCG1641). The viable cells were then counted in a Neubauer cytometer using the trypan blue exclusion test. The cells were seeded at a density of 12000 cells/wells in 96-well plates (pre-coated with poly-D-lysine; Greiner, Ref: 655940, batch: E20093UL) and have been grown at 37° C. in humidified air (95%)/C02 (5%) atmosphere. Half of the middle was changed every 2 days with fresh middle. The cells are held for 7 to 12 days to allow the proliferation of Schwann cells and sensory neurons. On day 8, the medium is supplemented with 50 μg/mL of ascorbic acid (AA; Sigma, Ref 092902, batch: 05316HJ-438) to initiate the differentiation of Schwann basal cells into myelinating Schwann cells.
Under these conditions, after 5 days of culture with AA, the myelin sheaths are detected with an anti-MAG antibody ([…]), an early marker of myelin. • A. Study of the neuroprotective properties of pluri-ionic compositions on myelinated sensory neurons after Cisplatin poisoning: curative protocol
Cis-diammineplatin (II) dichloride (cisplatin; Sigma, ref: P4394, batch: MKCL0026) was reconstituted in medium at 10 mg/ml (stock solution). The control environment was prepared under the same conditions. After 12 days of culture with AA, the primary sensory neurons were treated for 24 hours with pluri-ionic compositions in the presence or absence of cisplatin poisoning. The cisplatin preparation was used on neurons at a final concentration of 12 μM diluted in control medium for 24 hours of incubation. The pluri-ionic compositions tested are obtained by dissolution in water of lithium chloride, magnesium chloride hexahydrate and potassium chloride, and contain: • 1. KY21400: Li 10.37 mmol/kg, Mg 2.27 mmol/kg, K 16.88 mmol/kg • 2. KY21310: Li 5.76 mmol/kg, Mg 1.26 mmol/kg, K 9.38 mmol/kg • 3. KY21200: Li 1.73 mmol/kg, Mg 0.38 mmol/kg, K 2.81 mmol/kg […]

[2] = tested on: sensory neurons myelinated by Schwann cells; experiment: Toxicity of isolated or combined ions on sensory neurons without cisplatin; type: cell-based, rat; conditions: Table 1; isolated or combined ions (chlorides), no cisplatin
Excerpt: as §1
The following conditions were tested: • Control medium • Control+cisplatin (12 μM, 24 h) • Pluri-ionic compositions KY21400, KY21310 or KY21200+cisplatin (12 μM, 24 h) • Pluri-ionic compositions KY21400, KY21310 or KY21200 • Control+individual ions at various concentrations • Control+cisplatin (12 μM, 24 h)+individual ions at various concentrations
For the evaluation of the toxicity of individual ions, the cells are fixed after 3 days of treatment. The cells are incubated with an anti-beta-tubulin mouse monoclonal antibody (1/2000, Sigma; Ref T8660-.2 mL; batch: 034M4790V) in a blocking buffer at 4° C. for 12 hours.
The cell nuclei were labeled with a fluorescent marker (Hoechst's solution, Sigma; ref: H-33258, batch: 046M4048V) in the same buffer.
For each condition, 20 images per well were taken using InCell Analyzer™ 2200 (GE Healthcare) with a magnification of 20×. The images of each well of culture were taken under the same conditions. The analysis was performed using Developer software (GE Healthcare). A total of 6 data per experimental condition was provided.
In parallel, the effect of isolated or combined ions two by two on the survival of sensory neurons and the length of neurites was also evaluated under the same conditions. The solutions are all prepared from the chlorides of the ions tested.

[3] = tested on: rat myelinated primary sensory neurons; experiment: Neuroprotection on rat myelinated primary sensory neurons after cisplatin injury, protection protocol (2 h pretreatment); type: cell-based
Excerpt: as §1
Cis-diammineplatin (II) dichloride (cisplatin; Sigma, ref: P4394, batch: MKCL0026) was reconstituted in medium at 10 mg/ml (stock solution). The control environment was prepared under the same conditions. […]
The following conditions were assessed: • Control medium • Control+cisplatin (12 μM, 24 h) • Pluri-ionic compositions KY21400, KY21310 or KY21200+cisplatin (12 μM, 24 h) • Pluri-ionic compositions KY21400, KY21310 or KY21200.
This study was carried out with 6 wells per condition and duplicated for validation of the results. The data taken and analyzed are the added results of the 2 studies. […]

[4] = Table 2, isolated ions with cisplatin 12 μM, 24 h
[5] = concentrations ranging from 0.15 mg/kg to 1.2 mg/kg, same conditions
[6] = Table 1, with cisplatin 12 μM, 24 h, composition incubated at the same time
[7] = cisplatin 12 μM, 24 h, composition co-incubated

| Compound | Average percentage of neurite length relative to control [1, 4] | Mean percentage of sensory neurons number relative to control [1, 4] | Mean percentage of neurite length relative to control [2] [%] | Mean percentage of sensory neurons number relative to control [2] [%] | other results |
| --- | --- | --- | --- | --- | --- |
| [K+] [K 366 mg/kg = 9.38 mmol/kg] | 91% | 58% | 115 | 117 |  |
| [Cl-].[Li+] [Li 40 mg/kg = 5.8 mmol/kg] | 80% | 66% | 77 | 97 |  |
| [Mn+2] [Manganese] |  |  |  |  | effect on neurite length [1, 5]: without demonstrating any significant effect; effect on neuron survival [1, 5]: without demonstrating any significant effect; effect on the myelin sheath length [3, 5]: without demonstrating any significant effect |
| [Cl-].[Cl-].[Mg+2] [Mg 30.8 mg/kg = 1.27 mmol/kg] |  |  | 98 | 108 |  |
| N.N.[Cl][Pt][Cl] [cisplatin, Cis-diammineplatin (II) dichloride] | 63-75% | 51-57% |  |  | Mean percentage of neurite length relative to control [1, 6]: 35%; Mean percentage of sensory neurons number relative to control [1, 6]: 39%; Mean percentage of sensory neurons number relative to control ([1]; Table 4, with cisplatin (12 mm, 24 h)): 53.1%; loss of myelin [1, 7]: 78%; loss of neurites [1, 7]: 65%; cell death of sensory neurons (dead cells) ([1]; cisplatin 12 μM, 24 h, composition during the 24 h of cisplatin lesion): 61%; loss of neurites ([3]; cisplatin 12 μM, 24 h): 51%; cell death ([3]; cisplatin 12 μM, 24 h, composition two hours before and during cisplatin injury): 64%; loss of myelin ([3]; cisplatin 12 μM, 24 h, two-hour pre-treatment with composition): 69% |
